PMC8230625 (International Journal of Molecular Sciences, 2021)
Entries after “also recorded” stand apart in the source; their conditions may differ.

What was measured:
in vitro = conditions: human
Protocol: (§1) The HeLa cervical cancer adherent cell line (ATCC: CCL-2) was applied for the evaluation of individual and combined effects of mycotoxins on cell viability. The cells were cultured in DMEM (high glucose, 4500 mg/L) with 10% FBS, penicillin (100 U/mL), and streptomycin (100 μg/mL) in sterile plastic cell culture flasks (75 cm^2; 5% CO2, 37 °C). The cells were trypsinized and plated onto 96-well sterile plastic plates. Stock solutions (each 5000 μM) of ZEN, ZELs, ZAN, and ZALs used in cell experiments were prepared in 96 v/v% ethanol (spectroscopic grade; VWR, Debrecen, Hungary). Stock solutions of AOH (5000 μM or 40 mM) were prepared in spectroscopic grade dimethyl sulfoxide (DMSO; Fluka, Morris Plains, NJ, USA). Mycotoxin stock solutions were stored at −20 °C.
(§2) HeLa cells were treated with ZEN, α/β-ZEL, ZAN, α/β-ZAL, and AOH (0–250 μM) for 24 h. […] The cell viability was evaluated based on the ATP levels/well employing a previously described method without modifications.
(§3) Combined effects were evaluated based on combination indices (CI) determined using the CompuSyn software (ComboSyn Inc., Paramus, NJ, USA) by the median-effect equation of the mass-action law:(1) logfa/fu=m×log(D)−m×log(Dm), where fa and fu are the affected and unaffected fractions of the system, respectively; D represents the dose, Dm denotes the dose necessary for the production of median effect, while m is the sigmoidicity coefficient (m > 1 sigmoidal, m = 1 hyperbolic, m < 1 flat sigmoidal).
(§4) The combined effects of mycotoxins were determined by the CI values calculated based on the following equation [68]:(2) CI=(D)1/(Dx)1+(D)2/(Dx)2, where (Dx)1 and (Dx)2 are the individual doses necessary for the production of x% effect, while (D)1 and (D)2 are the doses of the two compounds that combined evoke the same effect as (Dx)1 alone or (Dx)2 alone, i.e., the targeted x% effect.

HeLa cells = assay: in vitro; conditions: HeLa; for CI Value (combination index): CompuSyn; for Concentration at (and above) which statistically significant (p < 0.01) decrease in cell viability was noticed: 24 h incubation, single compound; for IC50: Homo sapiens, read-out: Dm (IC50), viability of HeLa cells (ATP/well)
Protocol: as §1, §2, §3, §4

[1] = molecular target: T1, hERα (Saccharomyces cerevisiae BLYES strain) (Homo sapiens, UniProt P03372); assay: cell-based; type: cell-based; conditions: for CI Value (combination index) / Combined Estrogenic Effect / Combined Estrogenic Effect (grade symbol): + 6.28 × 10^−2 µM ZEN; for Combined estrogenic effect in Figure 5B: + 62.8 ×10^-3 μM ZEN
T1 construct: expressed in transfected cells; host or cells: Saccharomyces cerevisiae BLYES strain (hERα gene integrated in the chromosome)
T1 sequence (P03372 whole entry): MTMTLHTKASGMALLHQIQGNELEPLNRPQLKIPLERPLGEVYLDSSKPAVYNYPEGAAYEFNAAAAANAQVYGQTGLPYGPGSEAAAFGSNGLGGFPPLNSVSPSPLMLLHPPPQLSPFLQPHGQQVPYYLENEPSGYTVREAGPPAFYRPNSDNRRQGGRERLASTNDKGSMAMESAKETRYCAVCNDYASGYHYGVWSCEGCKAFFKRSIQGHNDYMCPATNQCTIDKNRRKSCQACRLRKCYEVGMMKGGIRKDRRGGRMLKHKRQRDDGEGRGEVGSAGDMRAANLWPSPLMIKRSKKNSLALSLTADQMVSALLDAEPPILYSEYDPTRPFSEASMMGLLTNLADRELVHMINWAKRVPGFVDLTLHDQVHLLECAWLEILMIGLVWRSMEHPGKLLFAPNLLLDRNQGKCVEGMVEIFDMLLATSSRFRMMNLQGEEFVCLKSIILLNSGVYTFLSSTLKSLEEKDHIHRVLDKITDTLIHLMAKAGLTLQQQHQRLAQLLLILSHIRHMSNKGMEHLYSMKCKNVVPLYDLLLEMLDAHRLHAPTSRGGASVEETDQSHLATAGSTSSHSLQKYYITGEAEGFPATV
Source text: The Saccharomyces cerevisiae BLYES strain was applied to examine the estrogenic activity of the compounds tested. This bioluminescent yeast bioreporter harbors the hERα gene on its chromosome, and it has two plasmids with genes responsible for bioluminescence. The pUTK404 plasmid contains luxC, -D, and -E genes from Photorhabdus luminescens and flavin oxidoreductase gene (frp) from Vibrio harveyi. The pUTK407 plasmid contains tandem estrogen responsive elements (EREs) that initiate the transcription of luxA and luxB genes after binding the dimer formed by estrogen receptor—ligand complexes.
S. cerevisiae BLYES strain was grown in 30 mL of yeast growth medium (YMM leu-, ura-) for 18–20 h at 30 °C.
Stock solutions of the compounds tested were prepared in methanol and stored at −20 °C. Estrogen assays were carried out on 96-well (PS, F-bottom) microplates (Greiner Bio-One Hungary Ltd., Mosonmagyaróvár, Hungary). In single compound tests, stock solutions of the compounds were serially diluted with methanol; whereas, in co-exposure experiments, a 20-µL mixture of the solutions was placed into the wells of the microplates. After the evaporation of methanol, yeast culture (200 µL; OD600 of 1.000 ± 0.050) were pipetted into each well. E2 was applied as a positive control, while wells containing only yeast cells and yeast cells with methanol served as negative and solvent controls, respectively. Bioluminescence (cps, counts per second) was measured after 5-h incubation (30 °C) with a VictorX Multilabel Plate Reader (Perkin Elmer Inc., Waltham, MA, USA).
as §3, §4
Zero percent was defined in each measurement as the mean of the methanol control values, and 100% was defined as the mean of all plateau values of single compounds’ concentration—response curves.

hERα = test system: hERα; design: method as in PMID 16194592; conditions: cited from earlier work
hERβ = test system: hERβ; design: method as in PMID 16194592; conditions: cited from earlier work
Ishikawa cells = test system: Ishikawa cells; design: method as in PMID 16194592; conditions: alkaline phosphatase assay; cited from earlier work
estrogen receptors = test system: estrogen receptors; design: method as in PMID 28910742; conditions: yeast reporters bioassay; cited from earlier work
androgen receptors = test system: androgen receptors; design: method as in PMID 28910742; conditions: yeast reporters bioassay; cited from earlier work
[2] = 24 h, 10 µM (lower toxic concentration) of the compound + 20 µM ZEN
[3] = 24 h, 10 µM of the compound + 20 µM ZEN
[4] = 24 h, 30 µM (higher toxic concentration) of the compound + 20 µM ZEN
[5] = 24 h, 30 µM of the compound + 20 µM ZEN
[6] = BLYES, higher estrogenic concentration of the compound (as E22)
[7] = BLYES, lower estrogenic concentration of the compound (as E21)

## Cc1cc(O)cc2oc(=O)c3c(O)cc(O)cc3c12 [AOH, alternariol]
In vitro; Decrease in cellular ATP levels (% of control), individual effect, HeLa, 24 h, single compound at 10 μM
  cytotoxicity at 24 h, 10 µM: 13.6%
In vitro; Decrease in cellular ATP levels (% of control), individual effect, HeLa, 24 h, single compound at 30 μM
  cytotoxicity at 24 h, 30 µM: 32.4%
HeLa cells; [2]
  Combined cytotoxic effect in Figure 3B: Syn and synergism
HeLa cells; [3]
  Combined Cytotoxic Effect: Synergism (CI < 0.8: synergism)
  Combined Cytotoxic Effect (grade symbol): + (0.60 < CI < 0.80: +)
  CI Value (combination index): 0.73
HeLa cells; [4]
  Combined cytotoxic effect in Figure 3B: Syn and synergism
HeLa cells; [5]
  Combined Cytotoxic Effect: Synergism (CI < 0.8: synergism)
  Combined Cytotoxic Effect (grade symbol): ++ (CI < 0.60: ++)
  CI Value (combination index): 0.50
HeLa cells
  Concentration at (and above) which statistically significant (p < 0.01) decrease in cell viability was noticed: 10 µM
HeLa cells; 24 h
  IC50: 33.6 µM
[1]; BLYES, co-treatment with ZEN (approx. 20% estrogenicity), α-ZEL 1.56 × 10^−3 µM, ZAN 6.24 × 10^−3 µM, AOH up to 48.4 µM, Figure 5A
  Effect of subtoxic (non-estrogenic) concentration of the compound on the estrogenic effect of ZEN: did not cause any relevant change; also recorded: did not increase the estrogenic effect of ZEN
[1]; single compound, even at 50 µM
  Estrogenic effect in BLYES assay: did not induce estrogenic effects; also recorded: did not show estrogenicity
hERα
  Fold lower affinity toward hERα compared to 17β-estradiol (E2): 10,000 fold
hERβ
  Fold lower affinity toward hERβ compared to 17β-estradiol (E2): 2500 fold
Ishikawa cells
  Fold weaker estrogenic effects vs. E2: 10,000 fold
Estrogen receptors
  Behaviour at estrogen receptors: weak partial agonist
Androgen receptors
  Behaviour at androgen receptors: full agonist

## C[C@H]1CCC[C@@H](O)CCC/C=C/c2cc(O)cc(O)c2C(=O)O1 [β-ZEL, β-zearalenol]
In vitro
  cytotoxicity at 10 µM: 19.7%
  cytotoxicity at 30 µM: 33.1%
HeLa cells; [2]
  Combined cytotoxic effect in Figure 3B: Syn
HeLa cells; [3]
  Combined Cytotoxic Effect: Synergism (CI < 0.8: synergism)
  Combined Cytotoxic Effect (grade symbol): + (0.60 < CI < 0.80: +)
  CI Value (combination index): 0.64
HeLa cells; [4]
  Combined cytotoxic effect in Figure 3B: Add
HeLa cells; [5]
  Combined Cytotoxic Effect: Additive effect (0.8 < CI < 1.2: additive effect)
  Combined Cytotoxic Effect (grade symbol): ± (0.80 < CI < 1.20: ±)
  CI Value (combination index): 1.07
HeLa cells; 24 h, co-exposure with toxic concentration of ZEN (20 μM), compared to ZEN-exposed cells, Figure 3A
  Effect of the non-toxic (subtoxic) concentration of the compound on ATP levels of ZEN-exposed cells: statistically significant (p < 0.01) decreases in ATP levels
HeLa cells
  Concentration at (and above) which statistically significant (p < 0.01) decrease in cell viability was noticed: 10 µM
HeLa cells; 24 h
  IC50: 39.4 µM
[1]
  EC50: 2.4 µM
[1]; BLYES, higher concentration (µM): α-ZEL 1.25 × 10^−2, β-ZEL 2.43, ZAN 4.99 × 10^−2, α-ZAL 2.48 × 10^−2, β-ZAL 2.48 × 10^−1, GEN 1.48
  CI Value (combination index): 0.95
[1]; [6]
  Combined Estrogenic Effect: Additive effect (0.8 < CI < 1.2: additive effect)
  Combined Estrogenic Effect (grade symbol): ± (0.80 < CI < 1.20: ±)
[1]; BLYES, lower concentration (µM): α-ZEL 6.24 × 10^−3, β-ZEL 1.22, ZAN 2.50 × 10^−2, α-ZAL 1.24 × 10^−2, β-ZAL 1.24 × 10^−1, GEN 7.4 × 10^−1
  CI Value (combination index): 0.77
[1]; [7]
  Combined Estrogenic Effect: Synergism (CI < 0.8: synergism)
  Combined Estrogenic Effect (grade symbol): + (0.60 < CI < 0.80: +)
[1]; BLYES, higher estrogenic concentration of the compound (as E20)
  Combined estrogenic effect in Figure 5B: additive effects
[1]; BLYES, lower estrogenic concentration of the compound (as E19)
  Combined estrogenic effect in Figure 5B: synergism
[1]; BLYES, single compound
  Concentration at (and above) which statistically significant (p < 0.01) estrogenic effect was observed: 0.31 µM
